According to patent US11299493B2, “Heterocyclic compounds and uses thereof” (NUVATION BIO INC., priority 2017, dated 2022):

Tests used:
[1] = molecular target: WEE1 kinase enzyme (Homo sapiens (Human), UniProt P30291); assay: WEE1 IC50 determination, LanthaScreen Terbium Labeled TR-FRET kinase assay; format: biochemical; conditions: WEE1 enzyme 1 nM, ATP 10 μM, 1 h
Experimental: IC50 values of compounds against WEE1 kinase enzyme were determined by LanthaScreen™ Terbium Labeled TR-FRET assay. […] After 1 h, […] stop solution containing Terbium labeled antibody (4 nM) (#PV3529, Invitrogen, Life Technologies Grand Island, N.Y.) and EDTA (#E5134, Sigma, St-Louis, Mo.) (20 mM) in TR-FRET dilution buffer (#PV3574, Invitrogen, Life Technologies Grand Island, N.Y.) was added. Readings were taken in a Synergy Neo Plate reader (BioTek, Winooski) at single excitation of 340 nm and Dual emission at 495 nm and 520 nm respectively.
The % activity of test samples was calculated as (Sample−Min)*100/(Max−Min). [Max: DMSO control, complete reaction with enzyme & DMSO and Min: No enzyme & DMSO].

[2] = tested on: A427 cells; assay: Cytotoxicity assay (resazurin) in A427 cells; format: cell-based; conditions: Homo sapiens, A-427, 72 h, A427, 72 hr, read-out: Cell Viability IC50 A427
Experimental: (§1) Cells were allowed to grow at 37° C. for 24 hr in 5% CO2 environment (culture conditions) in a Nuaire incubator (humidified). Serially diluted test compounds (100 μL) within the desired testing concentration ranges were added to the culture plate were further incubated in culture conditions for 72 hr and 96 hr for A427 and A549 respectively. The experiment was terminated at the designated incubation time by replacing the medium with 100 μL of 1 mM of resazurin (R7017; Sigma) prepared in respective culture medium, and the plates were further incubated in culture conditions for 4-6 hr. Fluorescence was recorded using a multimodal plate reader (Biotek Synergy Neo) at an excitation wavelength of 535 nm and emission wavelength of 590 nm to obtain relative fluorescence units. Data analysis was done by subtracting the background fluorescence (only medium blank) value from each reading and then normalizing with the vehicle control (DMSO treated cells) to obtain percent survival/proliferation. Percent survival was then subtracted by 100 to get the percent inhibition of proliferation which was used to calculate IC50 values.

[3] = tested on: A549 cells; assay: Cytotoxicity assay (resazurin) in A549 cells; format: cell-based; conditions: Homo sapiens, A549, 96 hr, read-out: Cell Viability IC50 A549
Experimental: as §1

[4] = tested on: A427 cells; assay: Cell proliferation assay (Cell Titer-Glo) in A427 cells; format: cell-based; conditions: Homo sapiens, A-427, typically 72 h
Experimental: (§2) The effects of test compounds were studied in five cell lines with various histotypes. The cancer cells (Table 4) were harvested during the logarithmic growth period and counted. Adjust cell concentrations to the appropriated number with respective medium, and add 90 μL cell suspensions to 96-well plates. After cells were seeded, the plates were shaken gently to distribute cells evenly and incubated at 37° C., 5% CO2 on day 1.
(§3) Cell viability data were plotted using GraphPad Prism (version 5, GraphPad Software, Inc., San Diego, Calif.). In addition, a nonlinear regression model with a sigmoidal dose response and variable slope within GraphPad Prism was used to calculate the IC50 value of individual test compounds.

[5] = tested on: A2780 cells; assay: Cell proliferation assay (Cell Titer-Glo) in A2780 cells; format: cell-based; conditions: Homo sapiens, typically 72 h
Experimental: as §2
Cells were treated with test compounds at 9 concentrations within a desired concentration range (e.g. 1.5 nM-10 μM) on day 2 by series diluting the test compound stock solution (10 mM in DMSO) with culture medium. Cell viability was assessed by Cell Titer-Glo® as recommended by Promega (Cat. No.: G7572, Promega) typically 72 h post-treatment.
as §3

[6] = tested on: A427 cells; assay: Activity of compounds in combination with cisplatin in A427 cells (resazurin); format: cell-based; conditions: Homo sapiens, A-427, 24 hr 2.5 μM cisplatin
Experimental: The activity of test compounds in combination with cisplatin in A427 cells was determined. Cells were seeded in a 96 well plate at 2000 cells/well. The next day, cells were treated with 2.5 μM cisplatin or vehicle (1×PBS) and incubated in culture conditions (37° C., 5% CO2) for 24 hr. Following the incubation, culture medium was replaced with medium containing test compound and cisplatin/vehicle, and cells were further incubated in culture conditions for another 72 hr. By this procedure, cisplatin was either continued or discontinued after an initial 24-hr incubation. Addition of test compound was in concentrations needed to obtain an 8-point dose response curve, with concentrations prepared by 3-fold dilution. The assay was terminated upon addition of resazurin, incubation for 4 hr in culture conditions and measurement of fluorescence at excitation and emission wavelengths of 535 and 590 nm, respectively.

[7] = tested on: As-Pc-1 cells; assay: Cytotoxicity assay (resazurin) in As-Pc-1 cells; format: cell-based; conditions: Homo sapiens, ASPC1; As-Pc-1, resazurin; read-out: Cell Viability IC50 As-Pc-1
Experimental: [The source words this procedure for another cell line and reports this cell line under the same test.] as §1, with “A549 (CCL-185; ATCC) and A427 (HTB-53; ATCC), both lung epithelial cell lines were seeded in their respective medium (DMEM/MEM, 10569044/41090101; Gibco) at a cell count of 1500 cells per 100 μL per well in a 96 well edge plate (167425; ThermoFisher). Cells” for “Cells”, “values. Potency of compounds in other cell lines (As-Pc-1, Panc 10.05, A172) was determined in an analogous manner.” for “values.”

[8] = tested on: Panc 10.05 cells; assay: Cytotoxicity assay (resazurin) in Panc 10.05 cells; format: cell-based; conditions: Homo sapiens, Panc1005; Panc 10.05, resazurin; read-out: Cell Viability IC50 Panc 10.05
Experimental: [The source words this procedure for another cell line and reports this cell line under the same test.] as §1, with “A549 (CCL-185; ATCC) and A427 (HTB-53; ATCC), both lung epithelial cell lines were seeded in their respective medium (DMEM/MEM, 10569044/41090101; Gibco) at a cell count of 1500 cells per 100 μL per well in a 96 well edge plate (167425; ThermoFisher). Cells” for “Cells”, “values. Potency of compounds in other cell lines (As-Pc-1, Panc 10.05, A172) was determined in an analogous manner.” for “values.”

[9] = tested on: A172 cells; assay: Cytotoxicity assay (resazurin) in A172 cells; format: cell-based; conditions: Homo sapiens, A 172, read-out: Cell Viability IC50 A172
Experimental: [The source words this procedure for another cell line and reports this cell line under the same test.] as §1, with “A549 (CCL-185; ATCC) and A427 (HTB-53; ATCC), both lung epithelial cell lines were seeded in their respective medium (DMEM/MEM, 10569044/41090101; Gibco) at a cell count of 1500 cells per 100 μL per well in a 96 well edge plate (167425; ThermoFisher). Cells” for “Cells”, “values. Potency of compounds in other cell lines (As-Pc-1, Panc 10.05, A172) was determined in an analogous manner.” for “values.”

[10] = tested on: Panc 10.05 cells; assay: Synergistic activity with gemcitabine, combination matrix method, Panc 10.05 cells; format: cell-based; conditions: fractional effect level of about 0.5, Chou-Talalay
Experimental: (§4) Determination of synergistic activity of compounds in combination with a chemotherapeutic drug on cell viability is determined by a combination matrix method. Chemotherapeutics that may be used in the combination include but are not limited to a platinum-based chemotherapeutic agent, a DNA alkylating agent, a topoisomerase inhibitor, an anthracycline, a histone deacetylase inhibitor, a bromodomain inhibitor, a kinase inhibitor, a mTOR inhibitor, a PARP inhibitor, an ATM inhibitor, an ATR inhibitor, a Wee1 inhibitor, a proteasome inhibitor, and a nucleotide analog or precursor analog. Cancer cell lines that may be used in the assay include but are not limited to lung cancer, leukemia, lymphoma, multiple myeloma, ovarian cancer, breast cancer, pancreatic cancer, stomach cancer, colon cancer, liver cancer, head and neck cancer, kidney cancer, skin cancer and brain cancer cell lines. Cells are seeded in a 96-well plate and incubated at 37° C. in cell culture conditions for 24 hr. […] Measurement of fluorescence at an excitation and emission wavelength of 535 and 590 nm respectively. Synergy is evaluated with the combination index (CI) value using the Chou-Talalay method in which additive effect (CI=1), synergism (CI<1), and antagonism (CI>1) in drug combinations is determined (Chou T C. Cancer Res 2010; 70:440-6.). […]

[11] = tested on: AsPC-1 cells; assay: Synergistic activity with gemcitabine, combination matrix method, AsPC-1 cells; format: cell-based; conditions: fractional effect level of about 0.5, Chou-Talalay
Experimental: as §4

[12] = then compound + cisplatin 72 hr, read-out: Cell viability IC50 in A427 cells with 2.5 μM cisplatin: 24 hr cisplatin then compound + cisplatin
[13] = then compound alone 72 hr, read-out: Cell viability IC50 in A427 cells with 2.5 μM cisplatin: 24 hr cisplatin then compound

WEE1 kinase enzyme, sequence (P30291 whole entry): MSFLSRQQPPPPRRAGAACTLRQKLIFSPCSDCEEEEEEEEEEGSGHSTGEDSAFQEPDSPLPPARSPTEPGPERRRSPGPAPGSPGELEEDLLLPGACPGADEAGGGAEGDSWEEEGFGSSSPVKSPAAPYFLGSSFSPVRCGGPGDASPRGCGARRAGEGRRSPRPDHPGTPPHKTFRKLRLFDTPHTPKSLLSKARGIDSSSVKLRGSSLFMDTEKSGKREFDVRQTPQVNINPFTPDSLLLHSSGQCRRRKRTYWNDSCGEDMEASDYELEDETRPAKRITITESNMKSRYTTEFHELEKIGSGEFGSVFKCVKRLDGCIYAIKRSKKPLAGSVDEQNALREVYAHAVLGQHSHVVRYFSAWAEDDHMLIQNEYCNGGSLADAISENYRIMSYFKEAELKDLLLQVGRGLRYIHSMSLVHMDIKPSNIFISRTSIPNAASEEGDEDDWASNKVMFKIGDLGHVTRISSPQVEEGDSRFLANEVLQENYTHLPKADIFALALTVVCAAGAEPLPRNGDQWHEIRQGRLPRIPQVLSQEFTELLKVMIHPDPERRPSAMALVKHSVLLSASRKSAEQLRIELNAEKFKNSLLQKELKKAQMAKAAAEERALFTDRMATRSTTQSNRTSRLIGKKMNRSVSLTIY

Row | IC50 [1] | IC50 [5] | Structure (SMILES) | IC50 [2] | IC50 [3] | IC50 [4] | IC50 [6, 12] | IC50 [6, 13] | IC50 [7] | IC50 [8] | IC50 [9] | combination index with gemcitabine [10] | combination index with gemcitabine [11]
1 | 62 nM |  | CC(C)(C)c1cc(-n2c3nc(Nc4ccc5c(c4)CCNC5(C)C)ncc3c(=O)n2C2CC2)ccn1 [Example 2.182] | 720 nM | 7750 nM |  |  |  | 1740 nM | 8600 nM | 10600 nM |  | 
2 | 4 nM |  | CC(C)n1c(=O)c2cnc(Nc3ccc4c(c3)CCNC4)nc2n1-c1ccnc(C(C)(C)C)n1 [Example 2.183] | 135 nM | 1800 nM |  |  |  | 95 nM | 805 nM | 1640 nM |  | 
3 | 2 nM |  | CC(C)n1c(=O)c2cnc(Nc3ccc4c(c3)CNCC4)nc2n1-c1ccnc(C(C)(C)C)n1 [Example 2.184] | 90 nM | 655 nM |  |  |  | 85 nM | 545 nM | 985 nM |  | 
4 | 53 nM |  | CC(C)n1c(=O)c2cnc(Nc3ccc4c(c3)CCNC4)nc2n1-c1ccn(C2CC2)n1 [Example 2.188] | 815 nM | 910 nM |  |  |  | 965 nM | 3100 nM | 1520 nM |  | 

More lines, now with the values behind:

Row | Structure (SMILES) | IC50 [1] | IC50 [5] | IC50 [2] | IC50 [3] | IC50 [4] | IC50 [6, 12] | IC50 [6, 13] | IC50 [7] | IC50 [8] | IC50 [9] | combination index with gemcitabine [10] | combination index with gemcitabine [11]
5 | C=CCn1c(=O)c2cnc(Nc3ccc4c(c3)CN(C(=O)CO)CC4)nc2n1-c1cccc(C(C)(C)O)n1 [Example 1.2] | 4 nM |  | 330 nM | 842 nM | 269 nM |  |  |  |  |  |  | 
6 | C=CCn1c(=O)c2cnc(Nc3ccc4c(c3)CN(C(=O)C(C)(C)O)CC4(C)C)nc2n1-c1cccc(C(C)(C)O)n1 [Example 1.3] | < 2 nM |  | 620 nM | 1220 nM | 483 nM |  |  |  |  |  |  | 
7 | C=CCn1c(=O)c2cnc(Nc3ccc4c(c3)CN(C(=O)CO)CC4(C)C)nc2n1-c1cccc(C(C)(C)O)n1 [Example 1.6] | 3.1 nM |  | 355 nM | 972 nM | 277 nM |  |  |  |  |  |  | 
8 | CCn1c(=O)c2cnc(Nc3ccc4c(c3)CNCC4)nc2n1-c1cccc(C(C)(C)O)n1 [Example 1.7] | 3 nM | 1100 nM | 800 nM | 660 nM |  |  |  |  |  |  |  | 
9 | CCn1c(=O)c2cnc(Nc3ccc4c(c3)CCNC4)nc2n1-c1cccc(C(C)(C)O)n1 [Example 1.12] | 4 nM |  | 1720 nM | 1060 nM |  | 70 nM | 120 nM |  |  |  |  | 
10 | CCn1c(=O)c2cnc(Nc3ccc4c(c3)CN(C)CC4(C)C)nc2n1-c1cccc(C(C)(C)O)n1 [Example 1.16] | 4.5 nM |  | 1420 nM | 1550 nM |  | < 14 nM | 100 nM |  |  |  |  | 
11 | CC(C)n1c(=O)c2cnc(Nc3ccc4c(c3)CCNC4)nc2n1-c1ccnc(C(C)(C)C)c1 [Example 1.138] | 6 nM |  | 993 nM | 2420 nM |  |  |  | 200 nM | 2820 nM | 4090 nM | less than 1 | less than 1
12 | CC(C)n1c(=O)c2cnc(Nc3ccc4c(c3)CCNC4)nc2n1-c1cccc(C(C)(C)F)n1 [Example 1.140] | 5 nM |  | 555 nM |  |  |  |  |  | 1520 nM |  |  | 
13 | CC(C)(C)c1cccc(-n2c3nc(Nc4ccc5c(c4)CCNC5)ncc3c(=O)n2C2CC2)n1 [Example 1.143] | 3 nM |  | 470 nM | 2850 nM |  |  |  | 270 nM | 1850 nM | 3620 nM |  | 
14 | CC(C)(F)c1cccc(-n2c3nc(Nc4ccc5c(c4)CCNC5)ncc3c(=O)n2C2CC2)n1 [Example 1.146] | 9 nM |  | 965 nM | 6680 nM |  |  |  | 920 nM | 5700 nM | 6820 nM |  | 
